Measured values reported in PubChem BioAssay AID2753 (Vanderbilt High Throughput Screening Facility, 2010).
pIC50: −log10 of the molar value. The source made the active and inactive calls. How the calls were made is not given here.

Target: ATP-sensitive inward rectifier potassium channel 1 (Homo sapiens) (UniProt P48048)
Experiment: concentration-response of Kir1.1 channel inhibition – cell-based, thallium flux, HEK293, dose response (AID 2753)
Settings: HEK293 ROMK thallium flux, fluorescence

ATP-sensitive inward rectifier potassium channel 1 (Homo sapiens), sequence (P48048 whole entry, looked up): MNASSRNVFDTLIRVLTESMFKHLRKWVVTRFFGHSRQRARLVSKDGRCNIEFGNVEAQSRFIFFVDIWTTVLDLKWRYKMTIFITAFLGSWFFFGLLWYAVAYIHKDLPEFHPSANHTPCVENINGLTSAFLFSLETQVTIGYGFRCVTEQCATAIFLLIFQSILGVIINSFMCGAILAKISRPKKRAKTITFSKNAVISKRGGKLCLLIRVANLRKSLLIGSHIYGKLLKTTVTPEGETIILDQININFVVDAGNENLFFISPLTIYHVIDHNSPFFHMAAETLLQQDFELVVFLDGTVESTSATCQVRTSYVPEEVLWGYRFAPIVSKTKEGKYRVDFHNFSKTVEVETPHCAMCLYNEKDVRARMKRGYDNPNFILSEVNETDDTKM

With `N#C/C(=C\c1ccc(O)c(Br)c1)C(=O)NCc1ccccc1` the IC50 was “inactive”.
`O=C(NCc1cccnc1)/C(=C/c1ccc(-c2cccc(Cl)c2)o1)S(=O)(=O)c1ccccc1` was tested, and the IC50 was “inactive”.
In the case of `CC1CN(c2ccc([N+](=O)[O-])c(NCCOc3ccccc3)c2)CCN1` (stereo not given), the IC50 was “inactive”.
In the case of `O=[N+]([O-])c1ccc(S(=O)(=O)N2CCN(Cc3c[nH]c4ccccc34)CC2)cc1`, the IC50 was “inactive”.
For `CCCC(C(=O)NCc1ccco1)N(C(=O)CNS(=O)(=O)c1ccccc1)c1ccccc1OC` (stereo not given), the IC50 was “inactive”.
`CS(=O)(=O)N1CCc2cc(-c3csc(NC(=O)Cc4cccs4)n3)ccc21` was tested, and the IC50 was “inactive”.
In the case of `O=C(/C=C/c1cn(CC(O)CN2CCCCC2)c2ccccc12)c1ccccc1` (stereo not given), the IC50 was “inactive”.
With `Cc1nn(CCCC(=O)N2CCN(c3ccc(F)cc3)CC2)c(C)c1[N+](=O)[O-]` the IC50 was “inactive”.
In the case of `CN(C)CCNC(=O)/C(=C/c1ccc(-c2ccc(Cl)cc2)o1)NC(=O)c1ccccc1`, the IC50 was “inactive”.
With `O=C1c2[nH]nc(-c3ccccc3O)c2C(c2cccc(Cl)c2)N1CC1CCCO1` (stereo not given) the IC50 was “inactive”.
In the case of `COc1ccccc1/C=C(\C#N)C(=O)Nc1ccc(S(N)(=O)=O)cc1`, the IC50 was “inactive”.
With `N#C/C(=C\c1cccc([N+](=O)[O-])c1)c1nnc2n1CCCCC2` the IC50 was “inactive”.
In the case of `N#C/C(=C\C1CC=CCC1)c1nc2ccccc2[nH]1` (stereo not given), the IC50 was “inactive”.
`O=C1c2cccc3c([N+](=O)[O-])ccc(c23)C(=O)N1CC1CCCO1` (stereo not given) was tested, and the IC50 was “inactive”.
For `CCCn1c(=S)[nH]c2cc(C(=O)N3CCCC(C(=O)OCC)C3)ccc2c1=O` (stereo not given), the IC50 was “inactive”.
`O=C(NCc1ccccc1)N1CCC(n2cnc3cc(F)ccc32)CC1` was tested, and the IC50 was “inactive”.
For `O=C1CC(N2CCN(Cc3ccc4c(c3)OCO4)CC2)C(=O)N1c1cccc2ccccc12` (stereo not given), the IC50 was “inactive”.
With `Cc1cccc(C2c3[nH]c4ccccc4c3CCN2C(=O)c2nn(C)c(=O)c3ccccc23)n1` (stereo not given) the IC50 was “inactive”.
With `O=C(CN1CCCC1)Nc1c2c(nc3ccccc13)N(Cc1ccccc1)CC2` the IC50 was “inactive”.
`N#C/C(=C\c1cccc([N+](=O)[O-])c1)C(=O)NCC1CCCO1` (stereo not given) was tested, and the IC50 was “inactive”.
With `CC(CCc1ccccc1)NC(=O)CN1CCN(c2ccccc2)CC1` (stereo not given) the IC50 was “inactive”.
In the case of `CCOCCCNC(=O)/C(C#N)=C/c1ccc(C(=O)OC)cc1`, the IC50 was “inactive”.
For `COC(=O)/C=C1\SC(=NC(=O)c2cccc(Cl)c2)NC1=O`, the IC50 was “inactive”.

`N#Cc1cccc(N=c2ssnc2Cl)c1` and `COc1ccc(-n2nc(C#N)c(Cl)cc2=O)cc1` are within 0.2 log units of each other in pIC50: 5.08 for the first, 4.99 for the second.

First: O=C(Cn1nc(CNc2ccc(Cl)cc2)[n+]2c1CCCCC2)c1ccc(Cl)cc1
Second: O=C(O)c1ccc(Cn2cnc3scc(-c4ccccc4)c3c2=O)cc1
The pIC50 of the first is 0.25 log units higher: 5.26 for the first, 5.01 for the second.

`Cc1c(N2C(=O)/C(=C\C3CC=CCC3)SC2=S)c(=O)n(-c2ccccc2)n1C` (stereo not given) and `Cc1ccc(N2C(=O)NC(=O)/C(=C\C=C\c3ccco3)C2=O)cc1C` are within 0.2 log units of each other in pIC50: 5.58 for the first, 5.63 for the second.

Compared with `N#Cc1nc(N2CCCC2)nc(N2CCCC2)n1`, `O=C(NC1CCCCCC1)c1cc(S(=O)(=O)N2CCCCC2)ccc1N1CCOCC1` is 0.88 log units higher in pIC50: 4.38 for the first, 5.26 for the second. The second is the more potent here.

Compared with `O=C(O)c1cccc(CN2C(=O)S/C(=C/c3cccc([N+](=O)[O-])c3)C2=O)c1`, `O=C(CCl)N(Cc1cccc([N+](=O)[O-])c1)c1cccc(Cl)c1` is 0.22 log units lower in pIC50: 5.24 for the first, 5.02 for the second.

First: CCOC(=O)C(=Cc1ccc(-n2cncn2)cc1)C(=O)OCC
Second: CC(=O)/C(=C/c1ccccc1)C(=O)Nc1ccccc1C
The pIC50 of the first is 0.62 log units lower: 4.02 for the first, 4.64 for the second.

Compared with `CCCC(=O)OCCNc1cc(Sc2nccn2C)c2nonc2c1[N+](=O)[O-]`, `COc1ccc(NC(=O)/C(C#N)=C/c2ccc(Sc3nncn3C)c([N+](=O)[O-])c2)cc1` is 1.56 log units higher in pIC50: 3.81 for the first, 5.37 for the second.

Going from `COc1cc(/C=C(\C#N)C(=O)Nc2ccccc2C(=O)O)cc(Cl)c1OC` to `COc1cc(/C=C(\C#N)C(N)=O)ccc1OS(=O)(=O)c1ccc(C)cc1`, the pIC50 falls from 5.48 to 4.51 (0.97 log units).

Compared with `O=[N+]([O-])c1ccc(N2CCCNCC2)c2ncccc12`, `Cc1cc(N2CCOCC2)ccc1/C=C\[N+](=O)[O-]` is 0.50 log units higher in pIC50: 4.97 for the first, 5.47 for the second. The second is the more potent here.

`N#CC1=C(N)N(c2ccccc2)C(c2cccc([N+](=O)[O-])c2)C1(C#N)C#N` (stereo not given) and `Cc1ccc(-n2c3nc(=O)[nH]c(=O)c-3cc3cc([N+](=O)[O-])ccc32)cc1` are within 0.2 log units of each other in pIC50: 4.94 for the first, 5.06 for the second.

Compared with `O=C1C=C(c2ccccc2)C(=O)N1Nc1ccccc1`, `O=C(N/N=C/c1cn(-c2cccs2)nc1-c1ccccc1)c1ccc(O)cc1` is 0.26 log units lower in pIC50: 5.56 for the first, 5.30 for the second.

Compared with `COC(=O)C(=Cc1ccccc1[N+](=O)[O-])C(=O)OC`, `COCCNC(=O)/C(C#N)=C/c1cccc(/C=C(\C#N)C(=O)NCCOC)c1` is 0.45 log units higher in pIC50: 5.09 for the first, 5.54 for the second. The second is the more potent here.

Compared with `CSc1ccc(/C=C(\C#N)C(=O)NC2CCCCC2C)cc1` (stereo not given), `COCCNC(=O)/C(C#N)=C/c1c(F)cccc1Cl` is 0.45 log units lower in pIC50: 5.49 for the first, 5.04 for the second.

`O=C(/C=C\c1cccs1)c1c(O)ccc2ccc(=O)oc12` and `O=C(/C(=C/c1ccc(Cl)cc1)c1nc2ccccc2[nH]1)c1cccs1` are within 0.2 log units of each other in pIC50: 5.32 for the first, 5.34 for the second.

Compared with `Cc1ccc(C)n1-c1ccc(-n2cnnn2)cc1`, `CN(C)c1nc(C=C(C#N)C#N)c(Cl)n1-c1ccc(F)cc1` is 0.55 log units higher in pIC50: 4.98 for the first, 5.53 for the second. The second is the more potent here.

Going from `COC(=O)N/N=C/c1ccc(-c2cc(Cl)ccc2Cl)o1` to `CCCNC(=O)c1nnsc1S(=O)c1ccc(Cl)cc1` (stereo not given), the pIC50 rises from 5.24 to 5.55 (0.31 log units).

`CCOC(=O)CS(=O)(=O)c1nc(-c2ccccc2)cc(C(F)(F)F)n1` and `COCc1cc(C)nc(SCC[N+](C)(C)CC(=O)Nc2cccc(C(F)(F)F)c2)c1C#N` are within 0.2 log units of each other in pIC50: 4.91 for the first, 5.03 for the second.

`CCCNc1nc(Cl)nc(NC(C)(C)C)n1` and `CC(C)(C)c1ccc(N2C(=N)SCC2=O)cc1` are within 0.2 log units of each other in pIC50: 5.56 for the first, 5.49 for the second.

Going from `N#CC(C#N)=C1C=CC=CN1/C(=C\c1ccccc1Cl)C(=O)c1ccccc1` to `N#C/C(=C\C1=C(N2CCOCC2)C(=C\c2ccccc2)/CC1)C(=O)Nc1ccccc1F`, the pIC50 falls from 5.22 to 4.84 (0.38 log units). The first is the more potent here.

Going from `N#Cc1ccc(/C=C/C(=O)c2cccnc2)cc1` to `N#C/C(=C/c1ccncc1)c1nc2ccccc2s1`, the pIC50 rises from 5.35 to 5.57 (0.22 log units). The second is the more potent here.

`CCCN1C(=O)/C(=C/c2ccncc2)SC1=S` and `Cc1cc(=O)oc2cc(NC(=S)NCc3ccccn3)ccc12` are within 0.2 log units of each other in pIC50: 5.11 for the first, 5.14 for the second.

Compared with `CCOc1cc(C)c(Cl)cc1S(=O)(=O)NC1CC(C)(C)NC(C)(C)C1`, `Cc1cc(C)c(C)c(S(=O)(=O)NC2CCN(Cc3ccccc3)CC2)c1C` is 0.69 log units higher in pIC50: 4.08 for the first, 4.77 for the second.

Going from `N#Cc1nc(-c2cccs2)oc1NCc1ccccc1` to `COc1ccc(NC(=O)/C(Cl)=C(/Cl)S(=O)Cc2ccccc2)cn1` (stereo not given), the pIC50 rises from 5.15 to 5.92 (0.77 log units). The second is the more potent here.

Going from `Cc1ccccc1N1C(=S)NC2c3ccccc3OC1(C)C2C(=O)N(C)C` (stereo not given) to `CN(C)c1cc(O)c(C(=S)Nc2ccccc2)c(N(C)C)c1`, the pIC50 falls from 7.94 to 4.12 (3.82 log units).

Compared with `Cc1cnc2ncc3sccc3c2c1`, `Cc1ccc(Oc2c(C(N)=O)cc([N+](=O)[O-])cc2[N+](=O)[O-])cc1` is 0.58 log units lower in pIC50: 4.87 for the first, 4.29 for the second.

`CC1CCCCC1NC(=O)CN1C(=O)CSc2cc(S(=O)(=O)N3CCCCCC3)ccc21` (stereo not given) and `COc1cccc(C(c2nnnn2Cc2ccccc2)N2CCN(C3CCCC3)CC2)c1OC` (stereo not given) are within 0.2 log units of each other in pIC50: 4.26 for the first, 4.45 for the second.

Compared with `COc1ccccc1-n1c(SCC(=O)N2CCc3ccccc32)nc2c(c1=O)SCC2`, `COc1ccc(C2(O)CCN(CCCCOc3ccccc3)CC2)cc1` is 0.22 log units lower in pIC50: 5.19 for the first, 4.97 for the second. The first is the more potent here.

Compared with `N#C/C(=C\c1cccc(Oc2ccccc2)c1)C(=O)N1CCOCC1`, `COCCCNc1ccc([N+](=O)[O-])cc1C(=O)Nc1cccc(C)n1` is 0.32 log units lower in pIC50: 5.18 for the first, 4.86 for the second.

For `O=C(Cn1nc(Cl)nc1Cl)c1cc2ccccc2oc1=O`, the pIC50 was 4.75.
